Measured values from BindingDB's records for doi:10.1016/0960-894X(96)00438-6 (1996).

Assay: In vitro inhibition of thrombin-induced human gel-filtered platelet aggregation.

Row | SMILES | IC50
1 | O=C(NCCc1nnn[nH]1)C1CCCN(C(=O)CCC2CCNCC2)C1 (stereo not given) [1-(3-Piperidin-4-yl-propionyl)-piperidine-3-carboxylic acid [2-(1H-tetrazol-5-yl)-ethyl]-amide] | 40000 nM
2 | O=C(O)C(O)CNC(=O)[C@@H]1CCCN(C(=O)CCC2CCNCC2)C1 (stereo partly drawn) [2-Hydroxy-3-{[(R)-1-(3-piperidin-4-yl-propionyl)-piperidine-3-carbonyl]-amino}-propionic acid] | 800 nM
3 | O=C(O)CCNC(=O)C1CCCN(C(=O)OCC2CCNCC2)C1 (stereo not given) [3-(2-Carboxy-ethylcarbamoyl)-piperidine-1-carboxylic acid piperidin-4-ylmethyl ester] | 5000 nM
4 | CN(CCC(=O)O)C(=O)C1CCCN(C(=O)CCC2CCNCC2)C1 (stereo not given) [3-{Methyl-[1-(3-piperidin-4-yl-propionyl)-piperidine-3-carbonyl]-amino}-propionic acid] | 28000 nM
5 | O=C(O)C1CCCC(NC(=O)C2CCCN(C(=O)CCC3CCNCC3)C2)C1 (stereo not given) [3-{[1-(3-Piperidin-4-yl-propionyl)-piperidine-3-carbonyl]-amino}-cyclohexanecarboxylic acid] | > 50000 nM

The next lines start with the values.

Row | IC50 | SMILES
6 | > 10000 nM | CC(CNC(=O)C1CCCN(C(=O)CCC2CCNCC2)C1)C(=O)O (stereo not given) [2-Methyl-3-{[1-(3-piperidin-4-yl-propionyl)-piperidine-3-carbonyl]-amino}-propionic acid]
7 | 1000 nM | COC(=O)C(CC(=O)O)NC(=O)C1CCCN(C(=O)CCC2CCNCC2)C1 (stereo not given) [2-{[1-(3-Piperidin-4-yl-propionyl)-piperidine-3-carbonyl]-amino}-succinic acid 1-methyl ester]
8 | 20 nM | O=C(O)C[C@H](NC(=O)[C@@H]1CCCN(C(=O)CCC2CCNCC2)C1)c1ccc2c(c1)OCO2 [(S)-3-Benzo[1,3]dioxol-5-yl-3-{[(R)-1-(3-piperidin-4-yl-propionyl)-piperidine-3-carbonyl]-amino}-propionic acid]
9 | 90 nM | O=C(O)C[C@H](NC(=O)[C@@H]1CCCN(C(=O)CCC2CCNCC2)C1)c1cccs1 [(S)-3-{[(R)-1-(3-Piperidin-4-yl-propionyl)-piperidine-3-carbonyl]-amino}-3-thiophen-2-yl-propionic acid]
10 | 80 nM | O=C(O)C[C@@H](C#Cc1ccccc1)NC(=O)[C@@H]1CCCN(C(=O)CCC2CCNCC2)C1 [(S)-5-Phenyl-3-{[(R)-1-(3-piperidin-4-yl-propionyl)-piperidine-3-carbonyl]-amino}-pent-4-ynoic acid]
